Columns and labels:
D(2) dopamine receptor [1] = biological target: T1, D(2) dopamine receptor (Bos taurus, UniProt P20288); test: Inhibition of [3H]YM-09151-2 binding to bovine retina membrane Dopamine receptor D2, high affinity site
D(2) dopamine receptor [2] = biological target: T1, D(2) dopamine receptor; test: Inhibition of [3H]YM-09151-2 binding to bovine retina membrane Dopamine receptor D2, low affinity site
D(1A) dopamine receptor = D(1A) dopamine receptor (Bos taurus, UniProt Q95136); test: Binding affinity against Dopamine receptor D1 like from bovine retina membranes measured using [3H]SCH-23390 radioligand
Chain of D(1A) dopamine receptor (Q95136 whole entry): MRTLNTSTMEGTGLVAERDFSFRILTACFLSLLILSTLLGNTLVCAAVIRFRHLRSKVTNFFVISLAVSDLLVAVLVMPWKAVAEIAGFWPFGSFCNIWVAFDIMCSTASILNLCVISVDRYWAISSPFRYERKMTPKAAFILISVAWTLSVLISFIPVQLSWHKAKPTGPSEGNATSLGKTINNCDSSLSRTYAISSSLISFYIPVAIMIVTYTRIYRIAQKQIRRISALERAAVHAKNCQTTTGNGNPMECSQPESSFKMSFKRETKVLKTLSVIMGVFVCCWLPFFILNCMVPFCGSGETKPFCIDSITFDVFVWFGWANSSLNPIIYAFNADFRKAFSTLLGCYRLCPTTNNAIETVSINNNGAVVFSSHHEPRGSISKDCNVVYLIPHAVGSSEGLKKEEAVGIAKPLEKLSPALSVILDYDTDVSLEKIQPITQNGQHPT

D(2) dopamine receptor [3] = biological target: T1, D(2) dopamine receptor; test: Tested for binding affinity against Dopamine receptor D2 like from bovine striatum membranes by using [3H]YM-09151-2 radioligand

T1 sequence (P20288 whole entry): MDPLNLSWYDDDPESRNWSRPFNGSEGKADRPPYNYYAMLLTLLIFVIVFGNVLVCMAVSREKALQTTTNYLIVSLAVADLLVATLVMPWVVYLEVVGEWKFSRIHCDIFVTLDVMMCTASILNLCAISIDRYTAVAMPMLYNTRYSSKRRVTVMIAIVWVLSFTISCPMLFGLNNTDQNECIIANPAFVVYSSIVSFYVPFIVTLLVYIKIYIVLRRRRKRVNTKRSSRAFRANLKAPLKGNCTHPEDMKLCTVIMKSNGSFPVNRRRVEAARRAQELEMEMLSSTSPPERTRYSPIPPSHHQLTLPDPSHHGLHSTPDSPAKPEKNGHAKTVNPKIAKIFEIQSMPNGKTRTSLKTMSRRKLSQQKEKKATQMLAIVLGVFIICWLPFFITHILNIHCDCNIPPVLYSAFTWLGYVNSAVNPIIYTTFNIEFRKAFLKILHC

SMILES | Ki (D(2) dopamine receptor [1]) | Ki (D(2) dopamine receptor [2]) | Ki (D(1A) dopamine receptor) | Ki (D(2) dopamine receptor [3])
Cc1cccc(C2CCCNC2)c1C (stereo unspecified) | 0.043 µM | 16 µM | – | –
CCCN1CCCC(c2cc(C)cc(C)c2)C1 (stereo unspecified) | 0.052 µM | 9.3 µM | 60 µM | 1.3 µM
CCCN1CCCC(c2ccc(C)cc2C)C1 (stereo unspecified) | 0.72 µM | 17 µM | 100 µM | –
CCCN1CCCC(c2c(C)cccc2C)C1 (stereo unspecified) | 0.156 µM | 23 µM | 98 µM | –
CCCN1CCCC(c2cc(C)ccc2C)C1 (stereo unspecified) | 0.54 µM | 25 µM | 112 µM | –
CCCN1CCCC(c2cccc(C)c2C)C1 (stereo unspecified) | 0.0753 µM | 7.8 µM | 60 µM | 4.9 µM
Cc1cc(C)cc(C2CCCNC2)c1 (stereo unspecified) | 0.24 µM | 24 µM | – | –
Cc1ccc(C2CCCNC2)cc1C (stereo unspecified) | 0.14 µM | 19 µM | – | –
CCCN1CCCC(c2ccc(C)c(C)c2)C1 (stereo unspecified) | 0.0191 µM | 8.2 µM | 102 µM | 4.99 µM
NCCc1ccc(O)c(O)c1 [DOPAMINE] | – | – | 4.3 µM | –
CCCN1CCC[C@@H](c2cccc(O)c2)C1 [PRECLAMOL] | 0.53 µM | 12 µM | – | 2.1 µM

— ChEMBL document CHEMBL1131416 (J Med Chem, 1998)
